The target in test [1] is T1, Genome polyprotein (dengue virus type 2, UniProt P29990). The test is classed as functional, Thailand/16681/1984.
The target in test [2] is T1, Genome polyprotein. The test is classed as functional, Thailand/16681/1984. The source holds these as a separate data set.

Each structure is given as a SMILES string. Values joined by “and” are separate entries in the source; they are usually repeats but may differ in a detail not shown here. Identical values can stand only once.

T1 sequence (P29990 1346-1475 limits assumed): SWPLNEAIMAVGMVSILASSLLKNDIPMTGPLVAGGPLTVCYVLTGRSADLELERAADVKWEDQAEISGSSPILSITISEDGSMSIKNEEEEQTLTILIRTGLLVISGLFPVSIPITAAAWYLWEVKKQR
T1 sequence (P29990 1476-2093 limits assumed): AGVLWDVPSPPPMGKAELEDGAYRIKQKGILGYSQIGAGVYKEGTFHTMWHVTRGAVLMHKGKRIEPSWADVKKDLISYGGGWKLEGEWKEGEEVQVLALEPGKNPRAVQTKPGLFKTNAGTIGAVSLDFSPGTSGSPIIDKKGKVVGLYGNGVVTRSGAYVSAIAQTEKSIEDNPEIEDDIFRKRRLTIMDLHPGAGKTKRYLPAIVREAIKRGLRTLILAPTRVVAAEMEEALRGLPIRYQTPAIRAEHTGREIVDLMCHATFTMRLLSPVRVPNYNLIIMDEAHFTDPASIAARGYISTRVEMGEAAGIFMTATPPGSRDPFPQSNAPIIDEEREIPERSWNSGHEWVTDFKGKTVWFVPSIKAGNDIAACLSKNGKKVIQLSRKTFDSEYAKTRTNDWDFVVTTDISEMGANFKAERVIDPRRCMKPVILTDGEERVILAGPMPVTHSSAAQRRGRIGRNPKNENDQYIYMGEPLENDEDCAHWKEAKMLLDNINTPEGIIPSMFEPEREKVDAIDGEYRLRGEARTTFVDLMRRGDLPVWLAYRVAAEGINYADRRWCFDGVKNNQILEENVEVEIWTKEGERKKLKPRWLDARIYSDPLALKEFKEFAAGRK

Turning to `CN(c1ccc2c(c1)CNC2)[C@H](C(=O)NCC(F)F)c1cc(Cl)cc(C2CC2)c1`, the values for the half-inhibitory concentration (IC50) against Genome polyprotein [1] and at Genome polyprotein [2] were more than 100 µM and more than 99.5 µM, respectively.

Take `O=C(Nc1ccc2c(c1)CNC2)c1cc(F)cc2[nH]c(-c3cnc(C4CC4)o3)nc12`: the IC50 – broadly, the point on the concentration scale where inhibition reaches its midpoint – against Genome polyprotein [1] was more than 100 µM; against Genome polyprotein [2], more than 49.7 µM.

In the case of `COCc1cc(Cl)cc([C@H](Nc2ccc3c(c2)CNC3)C(=O)NCC(F)F)c1`, the figures for the IC50 against Genome polyprotein [1] and at Genome polyprotein [2] were more than 100 µM and more than 99.5 µM, respectively.

Regarding `O=C(NCC(F)F)[C@H](Nc1ccc2c(c1)CNC2)c1cc(Cl)ccc1Cl`, the figures for the IC50 on Genome polyprotein [1] and on Genome polyprotein [2] were more than 100 µM and more than 99.5 µM, respectively.

Take `O=C1Cc2c(cccc2C(=O)N[C@H]2COc3cc(Br)cnc32)N1`: the results for the IC50 against Genome polyprotein [1] and on Genome polyprotein [2] were more than 100 µM and more than 99.5 µM, respectively.

Regarding `O=C(NCC(F)F)[C@H](Nc1ccc2c(c1)CNC2)c1cccc(Cl)c1`, the IC50 on Genome polyprotein [1] was more than 100 µM; on Genome polyprotein [2], more than 99.5 µM.

With `O=C1Cc2c(cccc2C(=O)Nc2ccn(C[C@H]3CCOC3)n2)N1`, the concentration for half-maximal inhibition (IC50) on Genome polyprotein [1] is more than 100 µM; on Genome polyprotein [2], more than 99.5 µM.

Take `Cc1cc(N2CCC(NC(=O)c3cccc4c3CC(=O)N4)CC2)[nH]n1`: the results for the IC50 on Genome polyprotein [1] and at Genome polyprotein [2] were more than 100 µM and more than 99.5 µM, respectively.

Turning to `CCOCC1(c2nc3c(C(=O)Nc4ccc5c(c4)CNC5)cc(F)cc3[nH]2)CC1`, the half-inhibitory concentration (IC50) is more than 100 µM against Genome polyprotein [1] and more than 99.5 µM on Genome polyprotein [2].

Turning to `O=C1Cc2c(cccc2C(=O)N[C@H]2C[C@@H](c3ncc[nH]3)C2)N1`, the concentration for half-maximal inhibition (IC50) against Genome polyprotein [1] was more than 100 µM; against Genome polyprotein [2], more than 99.5 µM.

Take `O=C1Cc2c(cccc2C(=O)NC2CCN(c3nccs3)CC2)N1`: the IC50 against Genome polyprotein [1] is more than 100 µM; at Genome polyprotein [2], more than 99.5 µM.

Turning to `O=C(NCC(F)F)[C@H](Nc1ccc2c(c1)CNC2)c1cccc2c1CCC2`, the IC50 on Genome polyprotein [1] is more than 100 µM; on Genome polyprotein [2], more than 99.5 µM.

In the case of `O=C(NCC(F)F)[C@H](Nc1ccc2c(c1)CNC2)c1cc(Cl)cc(Cl)c1Cl`, the 50% inhibitory concentration (IC50) at Genome polyprotein [1] is more than 100 µM; on Genome polyprotein [2], more than 99.5 µM.

Regarding `CCc1cc2c(cc1NC(=O)c1cc(F)cc3[nH]ncc13)CNC2`, the IC50 against Genome polyprotein [1] is more than 100 µM; at Genome polyprotein [2], more than 99.5 µM.

`COc1ccc(Cl)cc1[C@H](Nc1ccc2c(c1)CNC2)C(=O)NCC(F)F`: the IC50 was more than 100 µM at Genome polyprotein [1] and more than 99.5 µM against Genome polyprotein [2].

As for `O=C1Cc2c(cccc2C(=O)N[C@H]2CCC23CCOCC3)N1`, the concentration for half-maximal inhibition (IC50) was more than 100 µM at Genome polyprotein [1] and more than 99.5 µM against Genome polyprotein [2].

Turning to `Cc1c(C(=O)Nc2cc(C(=O)N3CC[C@H](CO)C3)ccn2)cc(C2CC2)n1C`, the half-inhibitory concentration (IC50) at Genome polyprotein [1] was more than 100 µM; against Genome polyprotein [2] it was more than 99.5 µM.

`Cc1ccc(-c2nc3c(C(=O)Nc4ccc5c(c4)CNC5)cc(F)cc3[nH]2)cc1`: the 50% inhibitory concentration (IC50) was 70.2 µM against Genome polyprotein [1]; 16.4 µM and 39.9 µM at Genome polyprotein [2].

In the case of `C[C@H](NC(=O)c1cccc2c1CC(=O)N2)c1cccc(S(C)(=O)=O)c1`, the IC50 was more than 100 µM at Genome polyprotein [1] and more than 99.5 µM on Genome polyprotein [2].

`O=C(NCC(F)F)[C@H](Nc1ccc2c(c1)CNC2)c1cc(Cl)cc2c1CCC2`: the 50% inhibitory concentration (IC50) on Genome polyprotein [1] is more than 100 µM; on Genome polyprotein [2], more than 99.5 µM.

For the molecule `O=C(NCC(F)F)[C@H](Nc1ccc2c(c1)CNC2)c1cc(Cl)cc2ccoc12`, the IC50 against Genome polyprotein [1] is more than 100 µM; on Genome polyprotein [2] it was more than 99.5 µM.

With `CNC(=O)C[C@H]1CC[C@@H](NC(=O)c2cccc3c2CC(=O)N3)CC1`, the IC50 is more than 100 µM against Genome polyprotein [1] and more than 99.5 µM against Genome polyprotein [2].

Take `O=C1Cc2c(cccc2C(=O)N[C@H]2CCSC3(CCOCC3)C2)N1`: the IC50 at Genome polyprotein [1] is more than 100 µM; against Genome polyprotein [2] it was more than 99.5 µM.

Turning to `COc1cc(C#N)cc([C@H](Nc2ccc3c(c2)CNC3)C(=O)NCC(F)F)c1`, the concentration for half-maximal inhibition (IC50) is more than 100 µM against Genome polyprotein [1] and more than 99.5 µM against Genome polyprotein [2].

With `O=C1Cc2c(cccc2C(=O)N[C@H]2C[C@H](Cn3ccnc3)C2)N1`, the IC50 against Genome polyprotein [1] was more than 100 µM; against Genome polyprotein [2], more than 99.5 µM.

As to `O=C(Nc1ccc2c(c1)CNC2)c1cc(F)cc2[nH]c(CCc3cccnc3)nc12`, the IC50 on Genome polyprotein [1] is more than 100 µM; at Genome polyprotein [2] it was more than 99.5 µM.

With `COc1ccc(-c2nc3c(C(=O)Nc4ccc5c(c4)CNC5)cc(F)cc3[nH]2)cc1`, the IC50 at Genome polyprotein [1] is more than 100 µM; against Genome polyprotein [2], more than 99.5 µM.

For the origin of these results see ChEMBL document CHEMBL5604063, “ASAP - DENV-2 NS2B-NS3 protease fluorescence dose response” (2024).
